This is an account of results in PubChem BioAssay (NCI).

Holding throughout (experiment): DTP human tumour cell line panel, 48 h
Experiment [1] deals with COLO 205 colon.
Experiment [2] concerns NCI-H522 lung.
Experiment [3] has as its system MDA-MB-435.
Experiment [4] deals with SF-295 CNS.
Experiment [5] relates to OVCAR-4 ovarian.
In experiment [6] the test system is BT-549 breast.
For experiment [7], the system named is MOLT-4 leukemia.
Experiment [8] concerns HOP-62 NSCLC.
Experiment [9] relates to MDA-MB-231 breast.
The subject of experiment [10] is A498 renal.

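Exposure lasted 48 hours, with cells grown in 96-well plates and compounds tested at five concentrations. GI50 = concentration required for 50% inhibition of growth. At the TGI there is no net growth.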 A value given as a limit tells only on which side of the number the result lay.

As for `Cn1cccc1-c1cc(-c2ccccc2)[nH]c(=O)c1C#N`, the GI50 in [1], in experiment [2], in experiment [3], in experiment [4], in experiment [5] and in experiment [6] was greater than 100 µM in each case. The GI50 (usually the concentration at which growth is held to half of that of the control) in [7] is 18.9 µM; in experiment [8], greater than 100 µM; in [9], greater than 100 µM; in experiment [10] it was 25.6 µM. Also, the TGI in experiment [1], in experiment [2], in [3], in [4], in [5] and in experiment [6] was greater than 100 µM throughout. In addition, the TGI (commonly the concentration at which net growth stops) in experiment [7] was 45.4 µM; in [8], greater than 100 µM; in experiment [9] it was greater than 100 µM; in experiment [10] it was greater than 100 µM.

As to `CN(Cc1ccc(C(F)(F)F)cc1)CC(O)C(=O)Nc1ccc(Cl)cc1` (stereo not given), the GI50 is 1.86 µM in [1]; 1.5 µM in experiment [2]; 1.52 µM in experiment [3]; 1.63 µM in [4]; 1 µM in [5]; 1.46 µM in [6]. Further, the GI50 was 1.42 µM in experiment [7], 1.7 µM in [8], 1.34 µM in [9] and 1.38 µM in experiment [10]. Also, the TGI in experiment [1] is 3.46 µM; in experiment [2] it was 3.06 µM; in [3], 3 µM; in [4] it was 3.08 µM; in experiment [5], 2.26 µM; in experiment [6], 2.88 µM. In addition, the TGI worked out at 3.28 µM in [7], 3.18 µM in experiment [8], 2.73 µM in [9] and 2.79 µM in experiment [10].

In the case of `CCc1ccccc1NC(=O)/C=C/c1ccccc1`, the TGI in experiment [1], in experiment [2], in [3], in [4], in [5] and in experiment [6] was greater than 100 µM each time. The TGI in experiment [7], in experiment [8], in experiment [9] and in experiment [10] was greater than 100 µM in each case.

With `Cc1cc(C)c2c(n1)sc1c(N)ncnc12`, the GI50 in experiment [1] was 17 µM; in experiment [2] it was greater than 25 µM; in experiment [3], greater than 25 µM; in experiment [4], greater than 25 µM; in [5] it was greater than 25 µM; in experiment [6], 11.3 µM. The GI50 in [7] is greater than 25 µM; in experiment [8] it was greater than 25 µM; in [9], greater than 24 µM; in [10] it was 4.9 µM. Also, the TGI in experiment [1], in experiment [2], in experiment [3], in experiment [4], in [5] and in [6] was greater than 25 µM in each case. Also, the concentration for total growth inhibition (TGI) in experiment [7], in [8], in experiment [9] and in [10] was greater than 25 µM each time.

Take `O=C(/C=C/c1ccc(C(F)(F)F)cc1)Nc1ccc(C=C2c3ccccc3C(=O)c3ccccc32)cc1`: the GI50 in experiment [1] was 6.18 µM; in experiment [2], 2.36 µM; in experiment [3], 0.64 µM; in experiment [4], 4.24 µM; in [5] it was 5.26 µM; in [6], 3.33 µM. The GI50 in [7] is 4.65 µM; in experiment [8], 11.7 µM; in experiment [9], 16 µM; in experiment [10] it was 2.6 µM. Moreover, the TGI was 38.4 µM in experiment [1]; 25.4 µM in experiment [2]; 2.67 µM in experiment [3]; greater than 100 µM in experiment [4]; greater than 100 µM in [5]; 48 µM in [6]. The TGI in experiment [7] was 65.1 µM; in experiment [8], 51.9 µM; in experiment [9], greater than 100 µM; in experiment [10], 52.8 µM.

Regarding `CCN(Cc1cc(F)ccc1F)c1ccc(CO)c(Cl)c1`, the GI50 in [1] was 2.17 µM; in experiment [2], 12.2 µM; in experiment [3] it was 12.8 µM; in [4], 0.283 µM; in [5] it was 0.129 µM; in experiment [6], 15.4 µM. Further, the GI50 is 18.1 µM in experiment [7], 1.35 µM in experiment [8], 13.6 µM in experiment [9] and 0.0298 µM in experiment [10]. Further, the TGI was determined as 6.72 µM in experiment [1]; 29 µM in [2]; 30 µM in [3]; 13.2 µM in [4]; 1.15 µM in [5]; 30.8 µM in experiment [6]. The TGI in experiment [7] was 53.8 µM; in [8], 20.5 µM; in experiment [9], 29.1 µM; in [10] it was 0.145 µM.

Turning to `C1=C/COCc2cc(ccc2OCCN2CCCC2)Nc2nccc(n2)-c2ccc(o2)COC/1`, the GI50 in experiment [1] is 1.29 µM; in experiment [2] it was 1.84 µM; in experiment [3], 1.2 µM; in experiment [4], 2.74 µM; in experiment [5] it was 2.33 µM; in experiment [6] it was 2.18 µM. The GI50 in [7] was 1.63 µM; in experiment [8] it was 2.28 µM; in experiment [9] it was 1.97 µM; in experiment [10] it was 1.52 µM. For the same compound, the TGI turned out to be 2.75 µM in experiment [1]; 6.13 µM in experiment [2]; 3.73 µM in experiment [3]; 8.02 µM in [4]; 10.4 µM in experiment [5]; 4.95 µM in experiment [6]. Further, the TGI in experiment [7] was 5.57 µM; in experiment [8] it was 6.91 µM; in [9], 7.9 µM; in experiment [10] it was 3.57 µM.

For `CCOC(=O)c1c(C)n(Cc2ccc(Cl)cc2Cl)c2c1cc1oc(=O)c(=O)n3cnc2c13`, the GI50 is 17 µM in experiment [1]; 16.4 µM in experiment [2]; 16.3 µM in experiment [3]; 21.1 µM in experiment [4]; 11.9 µM in experiment [5]; 21.6 µM in experiment [6]. Besides, the GI50 in experiment [7] was 3.99 µM; in experiment [8], 15.5 µM; in experiment [9] it was 15.7 µM; in experiment [10], 20.6 µM. Also, the TGI worked out at 33.3 µM in experiment [1]; 32.9 µM in experiment [2]; 30.9 µM in experiment [3]; 43.1 µM in experiment [4]; 27.6 µM in [5]; 40.9 µM in experiment [6]. Besides, the TGI in experiment [7] is 20.7 µM; in experiment [8], 33.1 µM; in [9], 31.4 µM; in experiment [10], 36.1 µM.

Turning to `O=C(Nc1ccc(-n2ccc3c(NC(=O)c4ccccc4)ncnc32)cc1)c1cccc(C(F)(F)F)c1`, the GI50 in experiment [1] was 4.1 µM; in [2] it was 1.87 µM; in experiment [3] it was 2.16 µM; in experiment [4], 1.07 µM; in experiment [5] it was 4.31 µM; in experiment [6] it was 9.57 µM. Further, the GI50 in [7] was 0.493 µM; in experiment [8], 10.9 µM; in experiment [9], 2.76 µM; in experiment [10] it was 3.51 µM. Also, the TGI in experiment [1] amounted to 20.9 µM; in experiment [2], 20.6 µM; in experiment [3], 16.3 µM; in experiment [4], 16.9 µM; in experiment [5], 31.2 µM; in [6], 30 µM. Also, the TGI in experiment [7] was found to be 32.7 µM; in experiment [8] it was 24.4 µM; in [9] it was 23 µM; in experiment [10], 23.2 µM.

For the compound `CN(C)c1nc(=NCc2ccco2)ss1`, the TGI in experiment [1] is greater than 68.5 µM; in [2] it was 3.11 µM; in experiment [3], 42.3 µM; in experiment [4], greater than 61.4 µM; in experiment [5], 51.7 µM; in experiment [6], 38.4 µM. Further, the TGI in [7] is 44.8 µM; in [8], 62.8 µM; in experiment [9], 32.2 µM; in experiment [10], greater than 100 µM.

As for `O=c1cc(-c2ccc(O)cc2)oc2cc(O[C@@H]3O[C@H](CO)[C@@H](O)[C@H](O)[C@H]3O)cc(O)c12`, the TGI in experiment [1], in experiment [2], in experiment [3], in experiment [4], in experiment [5] and in [6] was greater than 100 µM each time. Also, the total growth inhibition concentration (TGI) in [7], in experiment [8], in experiment [9] and in experiment [10] was greater than 100 µM throughout.

Turning to `Cc1cc(Nc2nc(C(=O)Nc3ccccc3)nc3ccccc23)n[nH]1`, the GI50 in [1] was 14.4 µM; in experiment [2] it was 6.37 µM; in [3], 9.67 µM; in [4] it was 7.82 µM; in experiment [5], 7.87 µM; in experiment [6] it was 15.7 µM. The GI50 is 9.75 µM in experiment [7], 14.2 µM in experiment [8], 13.6 µM in [9] and 1.05 µM in experiment [10]. Also, the TGI in experiment [1], in [2], in experiment [3], in experiment [4], in [5] and in [6] was greater than 25 µM each time. In addition, the concentration for total growth inhibition (TGI) in experiment [7], in experiment [8], in experiment [9] and in experiment [10] was greater than 25 µM in each case.

Regarding `CC(C)c1nc(N(C)S(C)(=O)=O)nc(-c2ccc(F)cc2)c1/C=C/[C@@H](O)C[C@@H](O)CC(=O)O`, the GI50 in experiment [1] is greater than 100 µM; in experiment [2] it was 21.5 µM; in experiment [3], 79.9 µM; in experiment [4] it was 32.7 µM; in experiment [5], greater than 100 µM; in [6], greater than 100 µM. For the same compound, the GI50 is greater than 100 µM in experiment [7], greater than 100 µM in [8], 4.81 µM in experiment [9] and 3.57 µM in [10]. For the same compound, the TGI in experiment [1], in [2], in [3], in experiment [4], in experiment [5] and in experiment [6] was greater than 100 µM each time. Besides, the TGI was greater than 100 µM in experiment [7], greater than 100 µM in experiment [8], 42 µM in experiment [9] and 20.8 µM in experiment [10].

In the case of `Cc1cc(Cl)ccc1OCC(=O)Nc1nc(N)nc(N)n1`, the TGI in [1], in experiment [2], in [3], in [4], in experiment [5] and in [6] was greater than 100 µM throughout. Also, the TGI in experiment [7], in experiment [8], in experiment [9] and in experiment [10] was greater than 100 µM in each case.

With `Cc1ncc(C(=O)Nc2ccc(CN3CCN(C)CC3)c(C(F)(F)F)c2)cc1C#Cc1ccc(N)nc1`, the GI50 in [1] was 0.239 µM; in experiment [2], 0.192 µM; in experiment [3], 0.155 µM; in experiment [4], 0.908 µM; in experiment [5], 0.122 µM; in experiment [6] it was 1.2 µM. The GI50 is 0.155 µM in [7], 0.426 µM in experiment [8], 0.158 µM in experiment [9] and 0.0898 µM in [10]. In addition, the concentration for total growth inhibition (TGI) turned out to be 4.55 µM in [1]; 1.75 µM in experiment [2]; 0.789 µM in experiment [3]; 4.07 µM in experiment [4]; 3.74 µM in experiment [5]; 4.09 µM in experiment [6]. Also, the TGI in experiment [7] was 7.52 µM; in [8], 2.6 µM; in experiment [9] it was 0.711 µM; in [10], 0.294 µM.

As to `CCOc1ccc2c(c1)C(=O)c1c-2n(CCCBr)c(=O)c2cc([N+](=O)[O-])ccc12`, the GI50 in experiment [1] was 41.3 µM; in experiment [2], 5.74 µM; in experiment [3], 30.6 µM; in experiment [4], 12.3 µM; in experiment [5], greater than 100 µM; in [6], 28.8 µM. In addition, the GI50 in experiment [7] is 4.18 µM; in experiment [8], 5.81 µM; in experiment [9], greater than 100 µM; in experiment [10] it was 36 µM. Further, the concentration for total growth inhibition (TGI) in experiment [1] is greater than 100 µM; in [2], 72.8 µM; in experiment [3], greater than 100 µM; in [4], greater than 100 µM; in [5], greater than 100 µM; in experiment [6], greater than 100 µM. The TGI in experiment [7], in experiment [8], in [9] and in experiment [10] was greater than 100 µM in each case.
